Values of other authors in publication PMC6611711 (Molecular cancer therapeutics, 2018).

Experiments:
[1] = system: panel of cancer cell lines; details: inhibition of choline kinase alpha (CKα)
[2] = system: tumor xenograft; details: mice

In the case of `CN(C)c1cc[n+](CCCCCCCCCCCC[n+]2ccc(N(C)C)cc2)cc1.[Br-].[Br-]` [ICL-CCIC-0019], the “Growth of a panel of cancer cell lines” value [1] is given as “suppressed growth of a panel of cancer cell lines” and the Tumor xenograft growth [2] is given as “inhibited tumor xenograft growth in mice”.
